{"source": "patent US20240216344A1", "about": "“THIAZOLIDINEDIONE ANALOGS FOR THE TREATMENT OF NAFLD AND METABOLIC DISEASES” (Cirius Therapeutics, Inc., priority 2019, published 2024)", "test_system": "patients with biopsy-proven NASH with fibrosis and no cirrhosis", "assay": "EMMINENCE Phase 2b trial, markers of glucose metabolism, liver enzymes, fibrosis and apoptosis biomarkers", "type": "in vivo, human", "conditions": "for Glucose, LS mean change from baseline to 6 months / Glucose, LS mean difference vs placebo at 6 months / HOMA IR, LS mean change from baseline to 6 months / HOMA IR, LS mean difference vs placebo at 6 months / HgBA1C, LS mean change from baseline to 6 months / HgBA1C, LS mean difference vs placebo at 6 months / Insulin, LS mean change from baseline to 6 months / Insulin, LS mean difference vs placebo at 6 months: patients with HbA1C >7%", "description": "Study Design: EMMINENCE was a randomized, double-blind evaluation of three oral daily doses of MSDC-0602K (62.5 mg, 125 mg and 250 mg) or placebo given for 12 months to adult patients with biopsy-proven NASH with fibrosis and no cirrhosis. The primary efficacy endpoint was assessed at 12 months. Clinic visits were conducted at baseline, 1, 2, 3, 6, 9, and 12 months, followed 2 weeks later by a safety visit. An interim analysis of safety and efficacy not related to the primary and secondary endpoints was conducted when 6 month data were available for 328 patients (see Example 5, above.) Interim results were provided only as summary statistics to avoid any unmasking of the study team or sponsor.\nIf no usable liver biopsy was available within 9 months prior to screening, a percutaneous liver biopsy was performed in patients with AST≥20 U/L and FibroScan CAP score ≥270 db/m and kPa≥8.5. Digitized slides were read by a single expert histopathologist according to NASH Clinical Research Network criteria. Baseline biopsies were read first for study qualification and a second time mixed randomly among 12-month biopsies. Fasting blood samples for routine central laboratory analyses were collected at each visit, and frozen samples collected at selected visits for biomarker assays.\nEfficacy endpoints: The primary efficacy endpoint was hepatic histological improvement in NAS defined as ≥2-point NAS decrease with a ≥1-point reduction in either ballooning or lobular inflammation and no increase in fibrosis stage at 12 months. Secondary efficacy endpoints included (1) NASH resolution defined as hepatocellular ballooning score of 0 and lobular inflammation score of 0-1 with no increase in fibrosis stage at 12 months, (2) fibrosis improvement defined as ≥1-stage decrease in fibrosis with no worsening of lobular inflammation or hepatocellular ballooning, (3) change from baseline in NAFLD activity score (NAS) and each one of its components (steatosis, lobular inflammation and ballooning) at 12 months, and (4) change from baseline in fibrosis score at 12 months. Exploratory efficacy endpoints included shifts in the central histopathologist's NASH diagnosis confirmation, and changes from baseline to 12 months in markers of glycemic control and insulin sensitivity, liver function/injury, and apoptosis and liver fibrosis.\nUsing a modified intent-to-treat approach, treated patients were included for analysis in their randomly-assigned treatment groups. Participation of sites with serious GCP or quality concerns were terminated and their data excluded from the analyses. Post-baseline measures through 14 days after the last study drug dose were included. No errors in treatment assignment occurred. The central histopathologist's re-read of baseline biopsies was used as baseline. Patients who no longer qualified on re-read were included in the analyses. Each active treatment group was compared to placebo with respect to the primary and secondary histopathologic endpoints using logistic regression including adjustment for randomization strata (diabetes mellitus, baseline fibrosis F1 versus F2/F3), and ordinal baseline NAS. Stratification-adjusted risk differences adjusted similarly are provided. The primary analyses included only observed data; sensitivity analyses included multiply-imputing missing follow-up and considering missing follow-up as a non-responder. Each active dose was compared to placebo regarding changes in NASH CRN scores using analysis of covariance with adjustment for age, sex, diabetes mellitus, Vitamin E≥400 IU, baseline fibrosis F1 versus F2/F3, and the baseline value. Changes in laboratory markers from baseline to 6 months and to 12 months were analyzed similarly.\nPost-hoc analyses: Each active dose was compared to placebo regarding the proportion where the pathologist's NASH diagnosis shifted from confirmed at baseline (re-read) to not confirmed at month 12 using logistic regression. […]"}
{"smiles": "COc1cccc(C(=O)COc2ccc(CC3SC(=O)NC3=O)cc2)c1", "note": "(stereo not shown) [MSDC-0602K]", "values": [{"measurement": "proportion of patients with baseline ALT above 19 (women) and 30 (men) U/L whose levels were normal at 12 months", "setting": "62.5 mg", "value": 10.6, "unit": "%"}, {"measurement": "proportion of patients with baseline ALT above 19 (women) and 30 (men) U/L whose levels were normal at 12 months", "setting": "125 mg", "value": 20.8, "unit": "%"}, {"measurement": "proportion of patients with baseline ALT above 19 (women) and 30 (men) U/L whose levels were normal at 12 months", "setting": "250 mg", "value": 33.3, "unit": "%"}, {"measurement": "proportion of patients with baseline ALT above 19 (women) and 30 (men) U/L whose levels were normal at 12 months", "setting": "combined 125 and 250 mg dose groups", "value": 27.2, "unit": "%"}, {"measurement": "Glucose, LS mean change from baseline to 6 months", "setting": "62.5 mg", "value": -2.42, "unit": "mmol/L"}, {"measurement": "Glucose, LS mean difference vs placebo at 6 months", "setting": "62.5 mg", "value": -1.18, "unit": "mmol/L"}, {"measurement": "HOMA IR, LS mean change from baseline to 6 months", "setting": "62.5 mg", "value": "−6.472"}, {"measurement": "HOMA IR, LS mean difference vs placebo at 6 months", "setting": "62.5 mg", "value": "−1.964"}, {"measurement": "HgBA1C, LS mean change from baseline to 6 months", "setting": "62.5 mg", "value": "−0.61", "unit": "%"}, {"measurement": "HgBA1C, LS mean difference vs placebo at 6 months", "setting": "62.5 mg", "value": "−0.18", "unit": "%"}, {"measurement": "Insulin, LS mean change from baseline to 6 months", "setting": "62.5 mg", "value": "−7.724", "unit": "uIU/mL"}, {"measurement": "Insulin, LS mean difference vs placebo at 6 months", "setting": "62.5 mg", "value": "−2.242", "unit": "uIU/mL"}, {"measurement": "Glucose, LS mean change from baseline to 6 months", "setting": "125 mg", "value": -3.48, "unit": "mmol/L"}, {"measurement": "Glucose, LS mean difference vs placebo at 6 months", "setting": "125 mg", "value": -2.23, "unit": "mmol/L"}, {"measurement": "HOMA IR, LS mean change from baseline to 6 months", "setting": "125 mg", "value": "−8.178"}, {"measurement": "HOMA IR, LS mean difference vs placebo at 6 months", "setting": "125 mg", "value": "−3.669"}, {"measurement": "HgBA1C, LS mean change from baseline to 6 months", "setting": "125 mg", "value": "−1.43", "unit": "%"}, {"measurement": "HgBA1C, LS mean difference vs placebo at 6 months", "setting": "125 mg", "value": "−1.01", "unit": "%"}, {"measurement": "Insulin, LS mean change from baseline to 6 months", "setting": "125 mg", "value": "−8.208", "unit": "uIU/mL"}, {"measurement": "Insulin, LS mean difference vs placebo at 6 months", "setting": "125 mg", "value": "−2.726", "unit": "uIU/mL"}, {"measurement": "Glucose, LS mean change from baseline to 6 months", "setting": "250 mg", "value": -3.24, "unit": "mmol/L"}, {"measurement": "Glucose, LS mean difference vs placebo at 6 months", "setting": "250 mg", "value": -1.99, "unit": "mmol/L"}, {"measurement": "HOMA IR, LS mean change from baseline to 6 months", "setting": "250 mg", "value": "−8.197"}, {"measurement": "HOMA IR, LS mean difference vs placebo at 6 months", "setting": "250 mg", "value": "−3.689"}, {"measurement": "HgBA1C, LS mean change from baseline to 6 months", "setting": "250 mg", "value": "−1.00", "unit": "%"}, {"measurement": "HgBA1C, LS mean difference vs placebo at 6 months", "setting": "250 mg", "value": "−0.58", "unit": "%"}, {"measurement": "Insulin, LS mean change from baseline to 6 months", "setting": "250 mg", "value": "−10.066", "unit": "uIU/mL"}, {"measurement": "Insulin, LS mean difference vs placebo at 6 months", "setting": "250 mg", "value": "−4.584", "unit": "uIU/mL"}]}
